System: 786-0 complex spheroids with HUVEC/MSC, growth % test/control
Test: Anticancer human tumor 786-0 cell line growth inhibition [AhR];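 note: compound exposure lasted seven days before the read-out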
Conditions: for IC50: curve of first compound; for viability, T/C: stronger effect = lower value
Summary of the method: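 Agents were dosed in half-log steps down from roughly clinical Cmax, or from 10 microM where Cmax was unknown, alone and with AhR antagonists. Read-out: percent test/control growth of tumor spheroids containing HUVEC and MSC stromal cells.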

[1] = second compound 0.1 µM, first compound 0.0316 µM
[2] = second compound 0.1 µM, first compound 0.1 µM
[3] = second compound 0.1 µM, first compound 0.316 µM
[4] = second compound 0.1 µM, first compound 1 µM
[5] = second compound 0.1 µM, first compound 3.16 µM
[6] = second compound 0.1 µM, first compound 10 µM
[7] = second compound 0.316 µM, first compound 0.0316 µM
[8] = second compound 0.316 µM, first compound 0.1 µM
[9] = second compound 0.316 µM, first compound 0.316 µM
[10] = second compound 0.316 µM, first compound 1 µM
[11] = second compound 0.316 µM, first compound 3.16 µM
[12] = second compound 0.316 µM, first compound 10 µM
[13] = second compound 1 µM, first compound 0.0316 µM
[14] = second compound 1 µM, first compound 0.1 µM
[15] = second compound 1 µM, first compound 0.316 µM
[16] = second compound 1 µM, first compound 1 µM
[17] = second compound 1 µM, first compound 3.16 µM
[18] = second compound 1 µM, first compound 10 µM
[19] = second compound 3.16 µM, first compound 0.0316 µM
[20] = second compound 3.16 µM, first compound 0.1 µM
[21] = second compound 3.16 µM, first compound 0.316 µM
[22] = second compound 3.16 µM, first compound 1 µM
[23] = second compound 3.16 µM, first compound 3.16 µM
[24] = second compound 3.16 µM, first compound 10 µM
[25] = second compound 10 µM, first compound 0.0316 µM
[26] = second compound 10 µM, first compound 0.1 µM
[27] = second compound 10 µM, first compound 0.316 µM
[28] = second compound 10 µM, first compound 1 µM
[29] = second compound 10 µM, first compound 3.16 µM
[30] = second compound 10 µM, first compound 10 µM
[31] = second compound 0.1 µM, first compound 0.00316 µM
[32] = second compound 0.1 µM, first compound 0.01 µM
[33] = second compound 0.316 µM, first compound 0.00316 µM
[34] = second compound 0.316 µM, first compound 0.01 µM
[35] = second compound 1 µM, first compound 0.00316 µM
[36] = second compound 1 µM, first compound 0.01 µM
[37] = second compound 3.16 µM, first compound 0.00316 µM
[38] = second compound 3.16 µM, first compound 0.01 µM
[39] = second compound 10 µM, first compound 0.00316 µM
[40] = second compound 10 µM, first compound 0.01 µM

Structure (SMILES)	IC50 (second compound 0.1 µM) [nM]	IC50 (second compound 0.316 µM) [nM]	IC50 (second compound 1 µM) [nM]	IC50 (second compound 3.16 µM) [nM]	IC50 (second compound 10 µM) [nM]	viability, T/C [1] [%]	viability, T/C [2] [%]	viability, T/C [3] [%]	viability, T/C [4] [%]	viability, T/C [7] [%]	viability, T/C [8] [%]	viability, T/C [9] [%]	viability, T/C [10] [%]	viability, T/C [13] [%]	viability, T/C [14] [%]	viability, T/C [15] [%]	viability, T/C [16] [%]	viability, T/C [19] [%]	viability, T/C [20] [%]	viability, T/C [21] [%]	also measured
CC(C)c1c(-c2ccccc2)nc2c(C#N)c[nH]n2c1=O + Cc1ccccc1N=Nc1ccc(NC(=O)c2ccnn2C)c(C)c1	> 10000	> 10000	> 10000	> 10000	> 10000	93.9	99.9	99.5	101	90.1	93.4	97.1	95.5	94.6	92.8	114	98.6	86.8	85.3	89.6	viability, T/C [5]: 92.1%; viability, T/C [6]: 99%; viability, T/C [11]: 92.6%; viability, T/C [12]: 95.2%; viability, T/C [17]: 96.3%; viability, T/C [18]: 88.9%; viability, T/C [22]: 82.8%; viability, T/C [23]: 85%; viability, T/C [24]: 84.2%; viability, T/C [25]: 86.6%; viability, T/C [26]: 83.9%; viability, T/C [27]: 84.5%; viability, T/C [28]: 82.4%; viability, T/C [29]: 83.1%; viability, T/C [30]: 79.5%
CC1COCCN1c1cc(-c2ccnn2C)c2ccnc(-c3ccn[nH]3)c2n1 (stereo not given) + Cc1ccccc1N=Nc1ccc(NC(=O)c2ccnn2C)c(C)c1	196	197	211	177	155	105	86.9	23.9	8.22	108	86.2	24.9	8.15	102	92.5	26.9	7.53	89.3	77.7	22.7	viability, T/C [31]: 97.6%; viability, T/C [32]: 108%; viability, T/C [33]: 107%; viability, T/C [34]: 109%; viability, T/C [35]: 119%; viability, T/C [36]: 104%; viability, T/C [37]: 99.5%; viability, T/C [38]: 112%; viability, T/C [22]: 10.2%; viability, T/C [39]: 96.9%; viability, T/C [40]: 96.8%; viability, T/C [25]: 96.1%; viability, T/C [26]: 67.5%; viability, T/C [27]: 21.2%; viability, T/C [28]: 9.41%
COc1ccc([C@@H](O)c2cc(-c3ncnc4cc(N5CCOCC5)ccc34)c(F)cc2Cl)nn1 + Cc1ccccc1N=Nc1ccc(NC(=O)c2ccnn2C)c(C)c1	> 10000	> 10000	> 10000	> 10000	9480	90.6	96	99.4	102	97.6	102	99.2	100	86.4	93.3	96	105	84.8	87.1	82.9	viability, T/C [5]: 102%; viability, T/C [6]: 79.9%; viability, T/C [11]: 106%; viability, T/C [12]: 87.1%; viability, T/C [17]: 97.1%; viability, T/C [18]: 77.4%; viability, T/C [22]: 84.1%; viability, T/C [23]: 89.3%; viability, T/C [24]: 63.9%; viability, T/C [25]: 96.9%; viability, T/C [26]: 90.2%; viability, T/C [27]: 81.9%; viability, T/C [28]: 86.1%; viability, T/C [29]: 72.8%; viability, T/C [30]: 48.2%
COc1cc(C2c3cc4c(cc3C(OC3OC5COC(C)OC5C(O)C3O)C3COC(=O)C23)OCO4)cc(OC)c1O (stereo not given) + Cc1cncc(-c2nc(NCCc3c[nH]c4ccccc34)c3ncn(C(C)C)c3n2)c1	1150	1290	1320	444	< 31.6	114	127	87	49.9	128	121	86.8	52.9	107	117	85.2	53.3	81.3	79.1	56.2	viability, T/C [5]: 35.5%; viability, T/C [6]: 9.86%; viability, T/C [11]: 33.4%; viability, T/C [12]: 7.71%; viability, T/C [17]: 32.3%; viability, T/C [18]: 4.59%; viability, T/C [22]: 30.5%; viability, T/C [23]: 15.8%; viability, T/C [24]: 2.3%; viability, T/C [25]: 6.55%; viability, T/C [26]: 4.82%; viability, T/C [27]: 1.24%; viability, T/C [28]: 0.35%; viability, T/C [29]: 0.49%; viability, T/C [30]: 0.43%
COc1cccc2c1C(=O)c1c(O)c3c(c(O)c1C2=O)CC(O)(C(=O)CO)CC3OC1CC(N)C(O)C(C)O1 (stereo not given) + Cc1cncc(-c2nc(NCCc3c[nH]c4ccccc34)c3ncn(C(C)C)c3n2)c1	158	145	133	< 31.6	< 31.6	82.8	63.1	30.3	8.19	90	61.4	25.7	7.63	62.5	60.2	21.3	5.04	39.4	25.2	7.66	viability, T/C [5]: 0.99%; viability, T/C [6]: 0.52%; viability, T/C [11]: 0.45%; viability, T/C [12]: 0.37%; viability, T/C [17]: 0.27%; viability, T/C [18]: 0.34%; viability, T/C [22]: 2.14%; viability, T/C [23]: 0.12%; viability, T/C [24]: 0.3%; viability, T/C [25]: 1.2%; viability, T/C [26]: 0.79%; viability, T/C [27]: 1.52%; viability, T/C [28]: 0.23%; viability, T/C [29]: 0.21%; viability, T/C [30]: 1.26%
Nc1ncn(C2CC(O)C(CO)O2)c(=O)n1 (stereo not given) + Cc1cncc(-c2nc(NCCc3c[nH]c4ccccc34)c3ncn(C(C)C)c3n2)c1	> 1000	> 1000	> 1000	> 1000	< 3.16	118	115	106	95.8	117	127	113	103	123	112	99	96.9	78.5	90.4	85.4	viability, T/C [31]: 123%; viability, T/C [32]: 115%; viability, T/C [33]: 116%; viability, T/C [34]: 128%; viability, T/C [35]: 124%; viability, T/C [36]: 116%; viability, T/C [37]: 77.5%; viability, T/C [38]: 80.4%; viability, T/C [22]: 76.2%; viability, T/C [39]: 8.18%; viability, T/C [40]: 13.5%; viability, T/C [25]: 11.1%; viability, T/C [26]: 9.3%; viability, T/C [27]: 8.63%; viability, T/C [28]: 10.9%
